Test results as given in patent US20100240642A1, “1H-Indole-2-Carboxylic Acid Derivatives Useful As PPAR Modulators” (SMITHKLINE BEECHAM CORPORATION, priority 2006, published 2010).
Counter-ions that a name gives are not always drawn.

target: T1, hPPARγ receptor (Homo sapiens, UniProt P37231); test: PPARγ Cell-based luciferase assay; conditions: CV-1 cells transfected with GAL4-hPPARγ LBD and UAStkLuc; at concentrations of 10^−6 M or less; read-out: agonism of the hPPARγ receptor (activation relative to full agonist rosiglitazone)
T1 construct: expressed in transfected cells; host or cells: CV-1 (African Green Monkey kidney, ATCC CCL-70)
T1 sequence (P37231 172-475 isoform P37231-2): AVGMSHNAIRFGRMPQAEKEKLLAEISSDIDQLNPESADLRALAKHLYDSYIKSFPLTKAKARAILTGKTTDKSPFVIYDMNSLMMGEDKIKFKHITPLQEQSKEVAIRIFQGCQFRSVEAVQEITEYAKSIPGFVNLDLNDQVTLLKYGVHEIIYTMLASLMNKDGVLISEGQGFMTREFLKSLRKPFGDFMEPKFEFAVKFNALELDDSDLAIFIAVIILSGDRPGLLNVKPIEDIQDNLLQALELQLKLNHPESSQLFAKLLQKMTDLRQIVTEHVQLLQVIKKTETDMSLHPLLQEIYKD
Description: Plasmids—PCR primers containing Kpnl and BamHI restriction sites were used to amplify PPARγ ligand binding domain (LBD) fragment (172-475) from a full-length human clone. The LBD fragment was ligated into the multiple cloning site of pFA-CMV (Stratagene). The resulting construct (pFA-CMV-GAL4-hPPARγLBD carried a fusion of the LBD with the yeast-derived GAL4 DNA-binding domain under the control of the CMV immediate early promoter. Reporter construct UAStkLuc carries a single 17 bp (CGGAGTACTGTCCTCCG) upstream activating sequence (UAS), the tk minimal promoter, and the firefly luciferase gene. The integrity of each construct was confirmed by diagnostic restriction digestion and by sequencing. Plasmid DNA was prepared using Qiagen Maxi-Prep kits.
PPARγ Cell-based luciferase assay—African Green Monkey kidney cell line CV-1 (ATCC CCL-70) was maintained in Dulbecco's Modified Eagle's Medium (D-MEM) containing 10% fetal bovine serum, 2 mM glutamine, and 1% penicillin/streptomycin (pen/strep). In preparation for luciferase assays, CV-1 cells were grown in charcoal-stripped cell medium containing D-MEM/F-12 medium supplemented with 5% or 3% dextran-treated/charcoal-stripped (CS) fetal bovine serum, 2 mM glutamine, with or without 1% pen/strep, as described below. CS fetal bovine serum was purchased from Hyclone; all other cell culture reagents were from Gibco.
The luciferase protocol is a multi-day procedure. On day 1, confluent cells in maintenance medium were subcultured 1:10 into T-175 cm^2 flasks containing 50 mL of 3% CS medium with pen/strep. These flasks were allowed to incubate at 5% CO2 and 37° C. for 72 hours.
Cells were harvested by trypsinization and then transfected using FuGENE (Roche) according to the manufacturer's specifications. Briefly, each transfection contained 0.55 μg pFA_CMV_GAL4_hPPARγ_LBD plasmid, 10.9 μg UAStkLUC, and 24 μg pBluescript (carrier DNA). Plasmid DNA was mixed with FuGENE in OptiMEM-1 medium and incubated for 30 min at room temperature. During this incubation, cells were harvested into 3% CS medium without pen-strep and dispensed at 14 million cells per T-175 cm^2 flask. Transfection mixes were added to the flasks and incubated overnight at 5% CO2 and 37° C.
Transfected cells were added to 384-well plates containing pharmacological agents. Rosiglitazone standard was reconstituted in DMSO at 1 mM. For 11-point dose-response experiments, the compounds were 3-fold serially diluted in DMSO and then stamped to 384-well assay plates (NUNC, catalog #164564) at 0.5 μL/well using a Beckman FX. DMSO and agonist control compound Rosiglitazone (1 mM) were each stamped at 0.5 μL/well to columns 23 and 24, respectively, of the 384-well plates. Transfected cells were harvested in 5% CS medium with pen/strep and dispensed at 10,000 cells/well (50 μL) onto the prepared 384-well compound plates using a Titertek Multidrop. Following overnight incubation at 5% CO2 and 37° C., Steady-Glo reagent (Promega) was added to the assay plates using a Multidrop. Plates were incubated for 10 min to ensure complete cell lysis and read in a ViewLux (PerkinElmer). […] Partial agonism is defined here as 20-80% activation (relative to full agonist rosiglitazone) at concentrations of 10^−6 M or less.

Emax, 20 to 80%:
CC(C)(C)c1ccc(-c2c(C(=O)O)n(Cc3cccc(-c4ccc(C(=O)O)cc4)c3)c3ccccc23)cc1 [Example 7, 1-[(4′-carboxy-3-biphenylyl)methyl]-3-[4-(1,1-dimethylethyl)phenyl]-1H-indole-2-carboxylic acid]
CC(C)(C)c1ccc(-c2c(C(=O)O)n(Cc3cc(O)cc(-c4ccc(C(=O)O)cc4)c3)c3ccccc23)cc1 [Example 22, 1-[(4′-carboxy-5-hydroxy-3-biphenylyl)methyl]-3-[4-(1,1-dimethylethyl)phenyl]-1H-indole-2-carboxylic acid]
CC(C)(C)c1ccc(-c2c(C(=O)O)n(Cc3cccc(N4CCN(S(N)(=O)=O)CC4)c3)c3ccccc23)cc1 [Example 39, 1-({3-[4-(aminosulfonyl)-1-piperazinyl]phenyl}methyl)-3-[4-(1,1-dimethylethyl)phenyl]-1H-indole-2-carboxylic acid]
COCCOCCCOc1cc(Cn2c(C(=O)O)c(Cc3cccc(C(F)(F)F)c3)c3ccccc32)cc(OCC2CC2)c1 [Example 55, 1-({3-[(cyclopropylmethyl)oxy]-5-[(3-{[2-(methyloxy)ethyl]oxy}propyl)oxy]phenyl}methyl)-3-{[3-(trifluoromethyl)phenyl]methyl}-1H-indole-2-carboxylic acid]
CC(C)(C)OC(=O)NS(=O)(=O)N1CCN(c2cccc(Cn3c(C(=O)O)c(-c4ccc(C(C)(C)C)cc4)c4ccccc43)c2)CC1 [Example 38, 1-[(3-{4-[({[(1,1-dimethylethyl)oxy]carbonyl}amino)sulfonyl]-1-piperazinyl}phenyl)methyl]-3-[4-(1,1-dimethylethyl)phenyl]-1H-indole-2-carboxylic acid]
CN(C)CCCOc1cc(Cn2c(C(=O)O)c(-c3ccc(C(C)(C)C)cc3)c3ccccc32)cc(OCC2CC2)c1 [Example 43, 1-[(3-[(cyclopropylmethyl)oxy]-5-{[3-(dimethylamino)propyl]oxy}phenyl)methyl]-3-[4-(1,1-dimethylethyl)phenyl]-1H-indole-2-carboxylic acid]
Cc1ccc(-c2ccc(C(=O)N(C)C)cc2)cc1Cn1c(C(=O)O)c(-c2ccc(C(C)(C)C)cc2)c2ccccc21 [Example 28, 1-({4′-[(dimethylamino)carbonyl]-4-methyl-3-biphenylyl}methyl)-3-[4-(1,1-dimethylethyl)phenyl]-1H-indole-2-carboxylic acid]
CN(C)CCCOc1cc(Cn2c(C(=O)O)c(Cc3cccc(C(F)(F)F)c3)c3ccccc32)cc(OCC2CC2)c1 [Example 57, 1-[(3-[(cyclopropylmethyl)oxy]-5-{[3-(dimethylamino)propyl]oxy}phenyl)methyl]-3-{[3-(trifluoromethyl)phenyl]methyl}-1H-indole-2-carboxylic acid hydrochloride]
COCCOc1cc(Cn2c(C(=O)O)c(-c3ccc(C(C)(C)C)cc3)c3ccccc32)cc(OC(=O)N2CCOCC2)c1 [Example 52, 3-[4-(1,1-dimethylethyl)phenyl]-1-({3-{[2-(methyloxy)ethyl]oxy}-5-[(4-morpholinylcarbonyl)oxy]phenyl}methyl)-1H-indole-2-carboxylic acid]
COCCOc1cc(Cn2c(C(=O)O)c(-c3ccc(C(C)(C)C)cc3)c3ccccc32)cc(OCc2ccccc2)c1 [Example 67, 3-[4-(1,1-dimethylethyl)phenyl]-1-({3-{[2-(methyloxy)ethyl]oxy}-5-[(phenylmethyl)oxy]phenyl}methyl)-1H-indole-2-carboxylic acid]
Cc1ccc(-c2ccc(OC(C)(C)C(=O)O)cc2)cc1Cn1c(C(=O)O)c(-c2ccc(C(C)(C)C)cc2)c2ccccc21 [Example 12, 1-({4′-[(1-carboxy-1-methylethyl)oxy]-4-methyl-3-biphenylyl}methyl)-3-[4-(1,1-dimethylethyl)phenyl]-1H-indole-2-carboxylic acid]
COCCOc1cc(Cn2c(C(=O)O)c(Cc3cccc(C(F)(F)F)c3)c3ccccc32)cc(OCC2CC2)c1 [Example 56, 1-[(3-[(cyclopropylmethyl)oxy]-5-{[2-(methyloxy)ethyl]oxy}phenyl)methyl]-3-{[3-(trifluoromethyl)phenyl]methyl}-1H-indole-2-carboxylic acid]
O=C(O)c1c(Cc2cccc(C(F)(F)F)c2)c2ccccc2n1Cc1cc(OCCn2cccc2)cc(OCC2CC2)c1 [Example 54, 1-[(3-[(cyclopropylmethyl)oxy]-5-{[2-(1H-pyrrol-1-yl)ethyl]oxy}phenyl)methyl]-3-{[3-(trifluoromethyl)phenyl]methyl}-1H-indole-2-carboxylic acid]
COc1ccc(-c2ccc(C)c(Cn3c(C(=O)O)c(-c4ccc(C(C)(C)C)cc4)c4ccccc43)c2)cc1 [Example 13, 3-[4-(1,1-dimethylethyl)phenyl]-1-{[4-methyl-4′-(methyloxy)-3-biphenylyl]methyl}-1H-indole-2-carboxylic acid]
COCCOc1cc(Cn2c(C(=O)O)c(Nc3ccc(C(C)(C)C)cc3)c3ccccc32)cc(OCCOC)c1 [Example 62, 1-[(3,5-bis{[2-(methyloxy)ethyl]oxy}phenyl)methyl]-3-{[4-(1,1-dimethylethyl)phenyl]amino}-1H-indole-2-carboxylic acid]
CC(C)(C)c1ccc(-c2c(C(=O)O)n(Cc3cccc(-c4ccc(OCc5ccccc5)cc4)c3)c3ccccc23)cc1 [Example 8, 3-[4-(1,1-dimethylethyl)phenyl]-1-({4′-[(phenylmethyl)oxy]-3-biphenylyl}methyl)-1H-indole-2-carboxylic acid]
Cc1ccc(-c2ccc(C(=O)NCCc3cccs3)cc2)cc1Cn1c(C(=O)O)c(-c2ccc(C(C)(C)C)cc2)c2ccccc21 [Example 33, 3-[4-(1,1-dimethylethyl)phenyl]-1-{[4-methyl-4′-({[2-(2-thienyl)ethyl]amino}carbonyl)-3-biphenylyl]methyl}-1H-indole-2-carboxylic acid]
CC(C)(C)c1ccc(-c2c(C(=O)O)n(Cc3cc(OCC4CC4)cc(C(F)(F)F)c3)c3ccccc23)cc1 [Example 65, 1-{[3-[(cyclopropylmethyl)oxy]-5-(trifluoromethyl)phenyl]methyl}-3-[4-(1,1-dimethylethyl)phenyl]-1H-indole-2-carboxylic acid]
O=C(O)c1c(Cc2cccc(C(F)(F)F)c2)c2ccccc2n1Cc1cc(OCC2CC2)cc(OCC2CC2)c1 [Example 59, 1-({3,5-bis[(cyclopropylmethyl)oxy]phenyl}methyl)-3-{[3-(trifluoromethyl)phenyl]methyl}-1H-indole-2-carboxylic acid]
COC(=O)N1CCN(c2cccc(Cn3c(C(=O)O)c(-c4ccc(C(C)(C)C)cc4)c4ccccc43)c2)CC1 [Example 36, 3-[4-(1,1-dimethylethyl)phenyl]-1-[(3-{4-[(methyloxy)carbonyl]-1-piperazinyl}phenyl)methyl]-1H-indole-2-carboxylic acid]
